For this test, the target named is PAI-1 (Homo sapiens, UniProt P05121). As to the kind of experiment: PAI-1 inhibition in the S2251 chromogenic substrate assay (PAI functional assay). In kind it is biochemical. As to conditions: for INHIBITION OF PAI-1 (degree of inhibition): unit assumed; for inhibition at 20 µM / inhibition at 50 µM / inhibition at 100 µM: read-out: INHIBITION OF PAI-1 (degree of inhibition); for IC50: PAI-1, S2251 assay. The procedure: In this assay, a compound is incubated with PAI-1 prior to addition to the tPA assay system. Inhibition of PAI-1 results in the production of plasmin from plasminogen. […]
Compounds of formula (A) were tested in a PAI chromogenic substrate assay. […] In turn, the plasmin cleaved the chromogenic substrate S2251 (Kabi-Vitrum) producing pNA (p-nitroaniline) which was detected scectrophotometrically at 405 nm.

Structures can show the parent of a compound that is named as a salt.

Chain of PAI-1 (P05121 24-402): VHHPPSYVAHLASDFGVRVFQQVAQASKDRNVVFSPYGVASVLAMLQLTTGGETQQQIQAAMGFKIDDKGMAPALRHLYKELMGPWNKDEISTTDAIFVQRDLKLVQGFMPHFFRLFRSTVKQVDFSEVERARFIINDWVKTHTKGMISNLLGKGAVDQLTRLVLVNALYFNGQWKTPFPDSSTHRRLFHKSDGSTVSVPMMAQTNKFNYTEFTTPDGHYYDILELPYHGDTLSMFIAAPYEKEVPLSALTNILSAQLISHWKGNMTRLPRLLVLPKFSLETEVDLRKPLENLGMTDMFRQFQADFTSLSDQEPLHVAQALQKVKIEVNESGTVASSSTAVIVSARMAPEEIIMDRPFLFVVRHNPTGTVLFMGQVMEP

With `CN(C)CCCOc1ccc(/C=c2\[nH]c(=O)/c(=C/c3ccc(C(=O)NCCCCN4CCc5ccccc5C4)cc3)[nH]c2=O)cc1` [Compound 5397, N-(4-(1,2,3,4-Tetrahydro-2-isoquinolyl)butyl)-4-((3Z,6Z)-6-(4-(3-dimethylaminopropoxy)benzylidene)-2,5-dioxo-3-piperazinylidene)methylbenzamide], the INHIBITION OF PAI-1 (degree of inhibition) (20 μM, Table 1, second part) turned out to be 42%.
For the molecule `CN(C)CCCOc1ccc(/C=c2\[nH]c(=O)/c(=C/c3ccco3)[nH]c2=O)cc1` [Compound 5041, (3Z,6Z)-6-(4-(3-Dimethylaminopropoxy)benzylidene)-3-furfurylidene-2,5-piperazinedione], under “20 μM, Table 1, second part”, the inhibition at 20 µM turned out to be 0%. Further, where the note is “Table 1, second part”, the inhibition at 50 µM was 0%. The inhibition at 100 µM (100 μM, Table 1, second part) is 1%.
Take `CN(C)CCCCCCOc1ccc(/C=c2\[nH]c(=O)/c(=C/c3ccccc3)[nH]c2=O)s1` [Compound 5389, (3Z,6Z)-6-Benzylidene-3-(5-(6-dimethylaminohexyloxy)-2-thienylmethylene)-2,5-piperazinedione]: the inhibition at 20 µM (20 μM, Table 1, second part) worked out at 55%. The half-maximal inhibitory concentration (IC50) (Table 1, second part) turned out to be 2.5 µM.
Turning to `Cc1[nH]cnc1/C=c1\[nH]c(=O)/c(=C/c2ccccc2)[nH]c1=O` [Compound 1927, (3Z,6Z)-3-Benzylidene-6-(4-(5-methylimidazolyl))methylene-2,5-piperazinedione], the INHIBITION OF PAI-1 (degree of inhibition) (6.25 μm, Table 1, first part) was determined as 14%; the INHIBITION OF PAI-1 (degree of inhibition) (12.5 μm, Table 1, first part) worked out at 22%; the INHIBITION OF PAI-1 (degree of inhibition) (25 μm, Table 1, first part) amounted to 20%; the INHIBITION OF PAI-1 (degree of inhibition) (50 μm, Table 1, first part) was found to be 39%; the INHIBITION OF PAI-1 (degree of inhibition) (100 μm, Table 1, first part) was 33%.
For the molecule `O=c1[nH]/c(=C\c2ccc(OCC(O)Cn3ccnc3)cc2)c(=O)[nH]/c1=C\c1ccccc1` (centres unmarked) [Compound 5057, (3Z,6Z)-6-Benzylidene-3-(4-(2-hydroxy-3-(1-imidazolyl)propoxy)benzylidene)-2,5-piperazinedione], the inhibition at 20 µM (20 μM, Table 1, second part) was found to be 37%. In addition, the inhibition at 50 µM (Table 1, second part) came to 29%. Moreover, the inhibition at 100 µM (100 μM, Table 1, second part) turned out to be 44%.
As for `CN(C)CCCOc1ccc(/C=c2\[nH]c(=O)/c(=C/c3ccoc3)[nH]c2=O)cc1` [Compound 5052, (3Z,6Z)-6-(4-(3-Dimethylaminopropoxy)benzylidene)-3-(3-Furylmethylene)-2,5-piperazinedione], the inhibition at 20 µM (20 μM, Table 1, second part) is 86%. In addition, the inhibition at 50 µM (Table 1, second part) was determined as 76%. For the same molecule, under “100 μM, Table 1, second part”, the inhibition at 100 µM was 77%.
Molecule `COc1ccc(/C=c2\[nH]c(=O)/c(=C/c3ccoc3)[nH]c2=O)cc1` [Compound 1476, (3Z,6Z)-3-(4-Methoxybenzylidene)-6-(3-furylmethylene)-2,5-piperazinedione] registered an INHIBITION OF PAI-1 (degree of inhibition) (25 μm, Table 1, first part) of 18%; an INHIBITION OF PAI-1 (degree of inhibition) (50 μm, Table 1, first part) of 48%; an INHIBITION OF PAI-1 (degree of inhibition) (100 μm, Table 1, first part) of 68%. This molecule displayed an IC50 (Table 2) of 50 to 100 µM.
Consider `O=c1[nH]/c(=C\c2ccc(OCCN3CCCC3)cc2)c(=O)[nH]/c1=C\c1ccccc1` [Compound 5053, (3Z,6Z)-6-Benzylidene-3-(4-(2-(1-pyrrolidinyl)ethoxy)benzylidene)2,5-piperazinedione], for which, where the note is “20 μM, Table 1, second part”, the inhibition at 20 µM was found to be 56%. Also, the inhibition at 50 µM (Table 1, second part) is 64%. The inhibition at 100 µM (100 μM, Table 1, second part) came to 68%.
With `CC(=O)Nc1ccc(/C=c2\[nH]c(=O)/c(=C/C=Cc3ccccc3)[nH]c2=O)cc1` [Compound 1676, (3Z,6Z)-3-(4-Acetamidobenzylidene)-6-cinnamylidene-2,5-piperazinedione], the INHIBITION OF PAI-1 (degree of inhibition) was determined as 1% (6.25 μm, Table 1, first part); 12% (12.5 μm, Table 1, first part); 52% (25 μm, Table 1, first part); 51% (50 μm, Table 1, first part); 29% (100 μm, Table 1, first part). The same molecule showed an IC50 (Table 2) of 12 to 25 µM.
In the case of `CN(C)CCOCc1ccc(/C=c2\[nH]c(=O)/c(=C/c3ccsc3)[nH]c2=O)cc1` [Compound 5069, (3Z,6Z)-6-(4-(2-Dimethylaminoethoxymethyl)benzylidene)-3-(3-thenylidene)-2,5-piperazinedione], the inhibition at 20 µM (20 μM, Table 1, second part) was 75%. Further, the inhibition at 50 µM (Table 1, second part) came to 71%. For the same molecule, the inhibition at 100 µM (100 μM, Table 1, second part) stood at 70%.
For `COc1cc2c(cc1OC)CN(CCc1ccc(NC(=O)c3ccc(/C=c4\[nH]c(=O)/c(=C/c5ccccc5)[nH]c4=O)cc3)cc1)CC2` [Compound 5393], the inhibition at 20 µM (20 μM, Table 1, second part) came to 76%. Besides, the concentration for half-maximal inhibition (IC50) (Table 1, second part) was 14 µM.
Take `CN(C)CCCOc1ccc(/C=c2\[nH]c(=O)/c(=C/c3ccc4ccccc4c3)[nH]c2=O)cc1` [Compound 5206]: the INHIBITION OF PAI-1 (degree of inhibition) is 78% (20 μM, Table 1, second part) and 72% (100 μM, Table 1, second part). Further, half-maximal inhibition (Table 1, second part) (IC50) was put at 3 µM.
`O=c1[nH]/c(=C\c2ccc(OCCn3ccnc3)cc2)c(=O)[nH]/c1=C\c1ccccc1` [Compound 1910, (3Z,6Z)-3-Benzylidene-6-(4-(2-imidazolylethoxy)benzylidene)-2,5-piperazinedione]: the INHIBITION OF PAI-1 (degree of inhibition) came to 63% (6.25 μm, Table 1, first part); 61% (12.5 μm, Table 1, first part); 50% (25 μm, Table 1, first part); 36% (50 μm, Table 1, first part); 27% (100 μm, Table 1, first part). The same molecule gave a half-inhibitory concentration (IC50) (Table 2) of 5 to 10 µM.
Under “20 μM, Table 1, second part”, `CN(C)CCOCCOc1ccc(/C=c2\[nH]c(=O)/c(=C/c3ccccc3)[nH]c2=O)s1` [Compound 5388.HCl] came in with an INHIBITION OF PAI-1 (degree of inhibition) of 60%. For the same molecule, the midpoint of inhibition (Table 1, second part), the IC50, lay at 12 µM.
`CC(C)(C)OC(=O)n1cc(/C=c2\[nH]c(=O)/c(=C/c3ccccc3)[nH]c2=O)c2ccccc21` [Compound 1471, (3Z,6Z)-3-Benzylidene-6-(3-(1-tert-butoxycarbonyl)indolyl)methylene-2,5-piperazinedione]: the INHIBITION OF PAI-1 (degree of inhibition) came out at 0% (6.25 μm, Table 1, first part); 6% (12.5 μm, Table 1, first part); 20% (25 μm, Table 1, first part); 60% (50 μm, Table 1, first part); 80% (100 μm, Table 1, first part). The molecule further yielded an IC50 (Table 2) of 25 to 50 µM.
Consider `CC(=O)Nc1ccc(/C=c2\[nH]c(=O)/c(=C/c3ccc(OCCCN(C)C)cc3)[nH]c2=O)cc1` [Compound 5048], for which the inhibition at 20 µM (20 μM, Table 1, second part) amounted to 11%. The inhibition at 50 µM (Table 1, second part) stood at 19%. Also, the inhibition at 100 µM (100 μM, Table 1, second part) is 55%.
Consider `CN(C)CCOc1ccc(/C=c2\[nH]c(=O)/c(=C/c3ccoc3)[nH]c2=O)cc1` [Compound 5062, (3Z,6Z)-6-(4-(2-Dimethylaminoethoxy)benzylidene)-3-(3-furylmethylene)-2,5-piperazinedione], for which the inhibition at 20 µM (20 μM, Table 1, second part) was 87%. In addition, the inhibition at 50 µM (Table 1, second part) turned out to be 81%. Also, under “100 μM, Table 1, second part”, the inhibition at 100 µM came to 78%.
For `O=c1[nH]/c(=C\c2cc(Cl)sc2Cl)c(=O)[nH]/c1=C\c1ccccc1` [Compound 5075, (3Z,6Z)-3-(2,5-Dichloro-3-thenylidene)-6-benzylidene-2,5-piperazinedione], in that order: 52%, 88% and 88%.
For `CN(C)CC(=O)NCc1ccc(/C=c2\[nH]c(=O)/c(=C/c3ccccc3Br)[nH]c2=O)cc1` [Compound 5079, (3Z,6Z)-3-(2-Bromobenzylidene)-6-(4-dimethylaminoacetamidomethylbenzylidene)-2,5-piperazinedione], in that order: 14%, 58% and 44%.
Regarding `CSc1ccc(/C=c2\[nH]c(=O)/c(=C/c3ccc(OCCN(C)C)cc3)[nH]c2=O)s1` [Compound 5072, (3Z,6Z)-6-(4-(2-Dimethylaminoethoxy)benzylidene)-3-(5-methylthio-2-thenylidene)-2,5-piperazinedione], the inhibition at 20 µM (20 μM, Table 1, second part) turned out to be 61%. The inhibition at 50 µM (Table 1, second part) was determined as 61%. Further, the inhibition at 100 µM (100 μM, Table 1, second part) came out at 60%.
Take `O=c1[nH]/c(=C\c2ccc(OCCN3CCOCC3)cc2)c(=O)[nH]/c1=C\c1ccccc1` [Compound 5054, (3Z,6Z)-6-Benzylidene-3-(4-(2-morpholinoethoxy)benzylidene)-2,5-piperazinedione]: the inhibition at 20 µM (20 μM, Table 1, second part) stood at 48%. Besides, the inhibition at 50 µM (Table 1, second part) came out at 57%. Also, the inhibition at 100 µM (100 μM, Table 1, second part) turned out to be 5%.
Consider `CN(C)CCCOc1ccc(/C=c2\[nH]c(=O)/c(=C/c3ccc(-n4ccnc4)cc3)[nH]c2=O)cc1` [Compound 1976], for which the INHIBITION OF PAI-1 (degree of inhibition) was 0% (6.25 μm, Table 1, first part); 0% (12.5 μm, Table 1, first part); 0% (25 μm, Table 1, first part); 0% (50 μm, Table 1, first part); 3% (100 μm, Table 1, first part).
In the case of `COc1ccc(/C=c2\[nH]c(=O)/c(=C/c3cn(S(C)(=O)=O)c4ccccc34)[nH]c2=O)cc1` [Compound 1693, (3Z,6Z)-3-(1-methanesulfonyl-3-indolyl)methylene-6-(4-methoxybenzylidene)-2,5-piperazinedione], the INHIBITION OF PAI-1 (degree of inhibition) runs as follows: (12.5 μm, Table 1, first part) 0%; (25 μm, Table 1, first part) 1%; (50 μm, Table 1, first part) 2%; (100 μm, Table 1, first part) 89%. The IC50 (Table 2) was 50 to 100 µM.
With `CN(C)CCCOc1ccc(/C=c2\[nH]c(=O)/c(=C/c3ccsc3)[nH]c2=O)cc1` [Compound 5042, (3Z,6Z)-6-(4-(3-Dimethylaminopropoxy)benzylidene)-3-(3-Thenylidene)-2,5-piperazinedione], the inhibition at 20 µM (20 μM, Table 1, second part) worked out at 42%. Further, the inhibition at 50 µM (Table 1, second part) came to 64%. The inhibition at 100 µM (100 μM, Table 1, second part) amounted to 77%.

(Values after US5891877A, “Pharmaceutical compounds” (Xenova Limited, priority 1996, dated 1999).)
